Measured values: paper PMC8881512 (Nature Communications, 2022)
Values joined by “and” are separate entries in the source; they are usually repeats but may differ in a detail not shown here. Identical values can stand only once.

Key:
LATS1 = target: T1, LATS1 (Homo sapiens, UniProt O95835); experiment: In vitro LATS1 kinase inhibition assay (HTRF); format: biochemical; settings: for LATS1 kinase activity: Fig.5b; for IC50: 3000 μM ATP, n = 2
T1 construct: purchased Signalchem
T1 sequence (O95835 1-1130): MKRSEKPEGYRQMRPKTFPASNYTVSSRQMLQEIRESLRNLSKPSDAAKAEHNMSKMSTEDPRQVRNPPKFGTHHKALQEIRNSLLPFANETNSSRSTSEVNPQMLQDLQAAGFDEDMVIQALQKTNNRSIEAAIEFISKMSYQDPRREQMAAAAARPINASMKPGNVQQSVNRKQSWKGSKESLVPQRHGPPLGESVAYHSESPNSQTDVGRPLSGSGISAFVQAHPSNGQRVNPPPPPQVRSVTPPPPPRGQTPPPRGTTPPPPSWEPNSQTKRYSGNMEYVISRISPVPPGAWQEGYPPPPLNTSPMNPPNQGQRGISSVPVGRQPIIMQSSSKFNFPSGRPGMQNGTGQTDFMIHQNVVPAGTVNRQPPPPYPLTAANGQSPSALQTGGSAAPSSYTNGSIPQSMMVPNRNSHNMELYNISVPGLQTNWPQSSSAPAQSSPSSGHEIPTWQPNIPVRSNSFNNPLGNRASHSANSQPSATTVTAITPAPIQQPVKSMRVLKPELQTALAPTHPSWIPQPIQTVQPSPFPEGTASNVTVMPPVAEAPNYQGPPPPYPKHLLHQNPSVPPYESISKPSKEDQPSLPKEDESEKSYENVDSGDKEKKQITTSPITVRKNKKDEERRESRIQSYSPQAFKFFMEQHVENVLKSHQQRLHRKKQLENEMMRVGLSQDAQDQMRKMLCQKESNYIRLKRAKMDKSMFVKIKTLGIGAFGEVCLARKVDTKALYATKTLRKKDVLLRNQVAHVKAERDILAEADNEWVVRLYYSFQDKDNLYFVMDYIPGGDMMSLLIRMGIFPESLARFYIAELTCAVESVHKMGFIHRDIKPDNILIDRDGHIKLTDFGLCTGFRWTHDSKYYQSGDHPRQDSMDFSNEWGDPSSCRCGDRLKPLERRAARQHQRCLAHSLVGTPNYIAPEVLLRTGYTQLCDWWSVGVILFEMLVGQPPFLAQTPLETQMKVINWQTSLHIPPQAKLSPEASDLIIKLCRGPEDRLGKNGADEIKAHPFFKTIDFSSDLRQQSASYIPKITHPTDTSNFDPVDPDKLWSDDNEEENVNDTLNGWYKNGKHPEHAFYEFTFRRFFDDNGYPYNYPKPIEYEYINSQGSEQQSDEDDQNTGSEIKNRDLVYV
Procedure: The kinase activity of LATS1 and LATS2 were performed based on an adapted and optimised HTRF Kinase Binding assay (Cisbio). Briefly, the concentration-response curves with compound concentration range of 10,000 to 0.17 nM with 3-fold serial dilution and 1X Kinase enzymatic buffer (Cisbio), 1.2 nM LATS1 or LATS2 kinases (Signalchem), 0.5 μM biotinylation labelled YAP peptide (Vivace) were dispensed into 384-well microplates by automated digital dispenser Echo/POD with the final DMSO concentration in all wells at 0.5%. To start the enzymatic reaction, 3000 μM ATP (for LATS1) or 6000 μM ATP (for LATS2) were added using multidrop in a 10-μl volume and incubated for 90 min at 30 °C. Subsequently, 10 μl of HTRF KinEASE detection buffer (Cisbio) containing 31.25 nM acceptor conjugate (streptavidin-XL665) and 1:100 donor conjugate (TK antibody labelled with Eu^3+-Cryptate) mixture were added and incubated at RT for 60 min, and the fluorescence emission at two different wavelengths was measured (615 nm and 665 nm) on Envision. […] The inhibition was calculated by the formula, inhibition % = (HIGH − ratio) × 100/ (High − LOW). HIGH control stands for 0.5% DMSO with kinase and LOW control stands for 0.5% DMSO without kinase. The data was analysed by Xlfit software. The IC50 values were determined by fitting to a standard four-parameter logistic using GraphPad Prism.

[1] = test system: YAP target, ESR1 and ERα target gene mRNA in T47D cells; experiment: qPCR gene expression in T47D cells; format: cell-based, human; settings: 2 µM for 2 days; for ANKRD1 mRNA (qPCR, relative to DMSO) / LATS2 mRNA (qPCR, relative to DMSO) / VGLL3 mRNA (qPCR, relative to DMSO): sheet Fig.s7c (Supplementary Fig. 7d); for ESR1 mRNA (qPCR, relative to DMSO) / GREB1 mRNA (qPCR, relative to DMSO) / TFF1 mRNA (qPCR, relative to DMSO): sheet Fig.s7e (Supplementary Fig. 7f)
Text: PCR primer pairs included

[2] = test system: YAP/TAZ target, ESR1 and ERα target gene mRNA in BTO-02; experiment: qPCR gene expression in breast tumour organoids BTO-02; format: cell-based, human; settings: BTO-02, 2 μM for 2 days; for ANKRD1 mRNA (qPCR, relative to DMSO) / CTGF mRNA (qPCR, relative to DMSO) / CYR61 mRNA (qPCR, relative to DMSO) / VGLL3 mRNA (qPCR, relative to DMSO): Fig.5g; for ESR1 mRNA (qPCR, relative to DMSO) / GREB1 mRNA (qPCR, relative to DMSO) / TFF1 mRNA (qPCR, relative to DMSO): Fig.5h;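 as to all read-outs here: relative mRNA abundance computed by the ΔCt approach from SYBR-based real-time qPCR, with GAPDH as internal housekeeping reference for normalisation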
MCF-7 cells = experiment: Colony-formation assay, MCF-7 (wild-type and ESR1 knock-in); format: cell-based, human; settings: for Rel. colony (colony-formation assay): MCF-7, VT02956 (2 μM), VT02484 (2 μM) or Palbociclib (0.1 μM) alone or in combinations, Fig.6d; for Relative colony formation: 1 μM 4OHT, 0.2 μM Fulvestrant, 2 μM VT02956, 2 μM VT02484, Fig.6g
Procedure: […] The drugs were refreshed every 2–4 days. The colonies were then fixed with 4% paraformaldehyde for 15 min and stained with 0.1% crystal violet in 20% methanol solution for quantification.

T47D cells = experiment: Colony-formation assay, T47D (wild-type and ESR1 knock-in); format: cell-based; settings: 1 μM 4OHT, 0.2 μM Fulvestrant, 2 μM VT02956, 2 μM VT02484, 14 days, Fig.6h
Procedure: For colony formation, cells were plated into 12-well plate with a constant density at the start date of treatment in triplicate with the indicated compounds and further cultured for 10 days (MCF-7) or 14 days (T47D). The drugs were refreshed every 2–4 days. The colonies were then fixed with 4% paraformaldehyde for 15 min and stained with 0.1% crystal violet in 20% methanol solution for quantification.

[3] = test system: VGLL3, ESR1, YAP/TAZ target and ERα target gene mRNA in MCF-7 cells; experiment: qPCR gene expression in MCF-7 cells;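 as to all read-outs here: SYBR Green real-time PCR, mRNA abundance computed by the ΔCt approach with GAPDH transcript as the internal normalisation control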; settings: MCF-7, 2 µM for 2 days; for ANKRD1 mRNA (qPCR, relative to DMSO) / LATS2 mRNA (qPCR, relative to DMSO) / VGLL3 mRNA (qPCR, relative to DMSO): sheet Fig.s7b (Supplementary Fig. 7c); for ESR1 mRNA (qPCR, relative to DMSO) / GREB1 mRNA (qPCR, relative to DMSO) / TFF1 mRNA (qPCR, relative to DMSO): sheet Fig.s7d (Supplementary Fig. 7e)

## NCC1CCN(c2nc(-c3ccncc3)nc3c(C#CCO)cccc23)CC1 [VT02956]
LATS1; Conc. 0.00016935 (µM)
  LATS1 kinase activity: 83.5285 and 93.8174
LATS1; Conc. 0.00050805 (µM)
  LATS1 kinase activity: 56.9778 and 63.1654
LATS1; Conc. 0.00152416 (µM)
  LATS1 kinase activity: 31.2859 and 31.2259
LATS1; Conc. 0.00457247 (µM)
  LATS1 kinase activity: 3.14 and 1.742
LATS1; in vitro
  IC50: 0.76 nM
[1]
  ANKRD1 mRNA (qPCR, relative to DMSO): 151.05 and 152.548 and 126.932
  LATS2 mRNA (qPCR, relative to DMSO): 2.078 and 1.8081 and 2.057
  VGLL3 mRNA (qPCR, relative to DMSO): 25.7059 and 26.0713 and 24.6224
  ESR1 mRNA (qPCR, relative to DMSO): 0.1433 and 0.1061 and 0.1464
  GREB1 mRNA (qPCR, relative to DMSO): 0.2102 and 0.1984 and 0.2087
  TFF1 mRNA (qPCR, relative to DMSO): 0.06716 and 0.07329 and 0.06992
[2]
  ANKRD1 mRNA (qPCR, relative to DMSO): 120.896 and 131.016 and 139.426
  CTGF mRNA (qPCR, relative to DMSO): 10.8797 and 10.8657 and 10.8616
  CYR61 mRNA (qPCR, relative to DMSO): 13.1424 and 13.7264 and 12.9668
  VGLL3 mRNA (qPCR, relative to DMSO): 31.437 and 32.235 and 31.533
  ESR1 mRNA (qPCR, relative to DMSO): 0.1649 and 0.1855 and 0.1729
  GREB1 mRNA (qPCR, relative to DMSO): 0.3079 and 0.3261 and 0.3014
  TFF1 mRNA (qPCR, relative to DMSO): 0.0863 and 0.0862 and 0.094
MCF-7 cells
  Rel. colony (colony-formation assay): 0.41 and 0.36 and 0.33
MCF-7 cells; MCF-7 ERa D538G knock-in
  Relative colony formation: 0.39 and 0.37 and 0.34
MCF-7 cells; MCF-7 ERa Y537S knock-in
  Relative colony formation: 0.41 and 0.42 and 0.45
MCF-7 cells; MCF-7 WT
  Relative colony formation: 0.32 and 0.27 and 0.35
T47D cells; T47D ERa Y537S knock-in
  Relative colony formation: 0.41 and 0.42 and 0.48
T47D cells; T47D WT
  Relative colony formation: 0.39 and 0.48 and 0.51
[3]
  ANKRD1 mRNA (qPCR, relative to DMSO): 39.7272 and 41.5085 and 42.3168
  LATS2 mRNA (qPCR, relative to DMSO): 3.381 and 2.554 and 3.922
  VGLL3 mRNA (qPCR, relative to DMSO): 57.2973 and 54.8732 and 38.032
  ESR1 mRNA (qPCR, relative to DMSO): 0.1783 and 0.1761 and 0.1829
  GREB1 mRNA (qPCR, relative to DMSO): 0.3188 and 0.332 and 0.2804
  TFF1 mRNA (qPCR, relative to DMSO): 0.2697 and 0.3023 and 0.214

## CCN(CC)c1nc(-c2ccncc2)nc2c(-c3ccc(Cl)cc3)cccc12 [VT02484]
LATS1; in vitro, LATS1 and LATS2 (Fig. 5b, c)
  inhibition towards LATS: showed no inhibition towards LATS
LATS1; in vitro
  IC50: > 10000 nM
[1]
  ANKRD1 mRNA (qPCR, relative to DMSO): 0.9511 and 0.8877 and 0.7788
  LATS2 mRNA (qPCR, relative to DMSO): 1.062 and 1.257 and 1.047
  VGLL3 mRNA (qPCR, relative to DMSO): 1.036 and 0.9545 and 1.103
  ESR1 mRNA (qPCR, relative to DMSO): 1.074 and 0.8288 and 1.02
  GREB1 mRNA (qPCR, relative to DMSO): 1.002 and 1.049 and 0.9359
  TFF1 mRNA (qPCR, relative to DMSO): 1.09 and 1.077 and 1.0923
[2]
  ANKRD1 mRNA (qPCR, relative to DMSO): 1.2497 and 1.0358 and 0.9991
  CTGF mRNA (qPCR, relative to DMSO): 1.029 and 0.9638 and 0.9395
  CYR61 mRNA (qPCR, relative to DMSO): 1.1798 and 0.914 and 0.9308
  VGLL3 mRNA (qPCR, relative to DMSO): 1.193 and 1.051 and 1.05
  ESR1 mRNA (qPCR, relative to DMSO): 1.0519 and 1.0384 and 1.0263
  GREB1 mRNA (qPCR, relative to DMSO): 1.1915 and 1.2181 and 1.0643
  TFF1 mRNA (qPCR, relative to DMSO): 1.1521 and 1.0774 and 1.1271
MCF-7 cells
  Rel. colony (colony-formation assay): 0.94 and 1.05 and 1.08
MCF-7 cells; MCF-7 ERa D538G knock-in
  Relative colony formation: 1.12 and 1.04 and 1.03
MCF-7 cells; MCF-7 ERa Y537S knock-in
  Relative colony formation: 0.96 and 0.91 and 1.03
MCF-7 cells; MCF-7 WT
  Relative colony formation: 0.96 and 0.89 and 1.02
T47D cells; T47D ERa Y537S knock-in
  Relative colony formation: 0.96 and 0.91 and 1.03
T47D cells; T47D WT
  Relative colony formation: 1.12 and 0.89 and 0.98
[3]
  ANKRD1 mRNA (qPCR, relative to DMSO): 0.9375 and 1.0569 and 0.9783
  LATS2 mRNA (qPCR, relative to DMSO): 1.073 and 0.8452 and 1.234
  VGLL3 mRNA (qPCR, relative to DMSO): 1.127 and 1.023 and 0.9343
  ESR1 mRNA (qPCR, relative to DMSO): 0.9424 and 1.008 and 0.8622
  GREB1 mRNA (qPCR, relative to DMSO): 1.01 and 0.9864 and 0.9917
  TFF1 mRNA (qPCR, relative to DMSO): 1.063 and 1.169 and 0.8376
